According to US20090270397A1, “Methods and compositions for the treatment of cancers, such as melanomas and gliomas” (priority 2008, published 2009):

Columns and labels:
melanoma cells = experiment: Antifolate agents as enhancers of TMZ, MTT assay (FIG. 7); format: cell-based; conditions: 0.01 uM antifolate in combination with TMZ, 72 h
Method: FIG. 7 is a graph presenting the results of tests of several antifolate agents as enhancers of anti-neoplastic activity. […] Cells were treated with the indicated dose of TMZ alone, or in combination with 0.01 uM PYR, MTX (Methotrexate), TMP (Trimethoprim), TMTX (Trimetrexate), PTX (Piritrexim), and CYC (Cycloguanil). Cell growth was assessed by MTT assay after 72 h drug treatment.
Among the six “hits” identified from library screening, both PYR and triamterene are antifolate compounds.

SK-MEL 19 cells = experiment: MTT cell proliferation/viability assay in SK-MEL 19 melanoma cells; format: cell-based, human; conditions: for sensitization to TMZ (effect on TMZ response curve): SK-MEL 19 cells
Method: Dose-response diagrams of SKM-19 cells exposed to TMZ (FIG. 2A) or pyrimethamine (PYR) (FIG. 2B) alone were prepared for comparison. Melanoma cells were exposed to the indicated concentration of TMZ or PYR for 72 hours. Cell growth inhibition was evaluated by the MTT assay. Survival relative to the control is presented as mean±standard error of the mean of at least three experiments (with viability of control cells set at 100%). In FIG. 2C, PYR enhances TMZ efficacy in various cancer cell lines. Cells were treated with indicated concentrations of TMZ or PYR at the same time and left for 72 hours. Cell viability was determined by MTT assay. SK-MeI 19, SK-Mel 100, SK-Mel 173, and SK-Mel 192 are melanoma cell lines; LN-18 and T98G are glioma cell lines. * P<0.05, **P<0.01.
(§1) FIGS. 8A-8C. PYR antifolate activity enhances TMZ chemotherapeutic efficacy. A, the growth inhibitory effects of PYR, DDEP, DDMP, CYC, and the classical antifolate MTX on TMZ response curve were examined by MTT assay in melanoma and glioma cells. […] The cytotoxic effect of the combination of TMZ (25 μg/ml) and PYR (0.5 μM) can be rescued by LV (10 μM) as examined by MTT assay (B) and the level of cleaved PARP (C) in SK-MEL 19 cells. 1. Control; 2. TMZ; 3. PYR; 4. TMZ+PYR; and 5. TMZ+PYR+LV. ** P<0.01, compared to 2, 3, or 5.
(§2) The cell growth and cytotoxicity after treatment with TMZ and/or PYR on melanoma cells and glioma cells was performed using Colorimetric MTT assay for cell survival and proliferation assay (MTT Assay Kit, Promega). Tumor cells were seeded at 3000 cells per well (100 μl volume) in 96-well plates and allowed to attach overnight. After TMZ and PYR treatment for 72 hours, the cells were stained with MTT, which is then converted to dark blue formazan crystals by mitochondrial dehydrogenases in viable cells. The plates were read with a microplate reader by measuring the absorbance of converted MTT at 490 nm. Results were expressed as the OD490 relative to that of untreated cells. Cell viability was also determined by the trypan-blue dye exclusion method.

[1] = tested on: cleaved PARP in SK-MEL 19 cells; experiment: Leucovorin rescue, cleaved PARP level; format: cell-based, human; conditions: 10 μM LV added to cells treated with TMZ/PYR
Method: as §1
Leucovorin (N-5-formyltetrahydrofolate, LV, folinic acid), a reduced form of folate, is used widely to specifically reverse the toxic effects of antifolates (27). To further confirm that PYR-enhanced TMZ chemotherapeutic efficacy in melanoma cells was due to the antifolate activity of PYR, 10 μM LV was added to cells treated with TMZ/PYR. LV rescued both the inhibition of cell growth (FIG. 8B) and the increase in apoptotic death induced by TMZ/PYR as measured by the proteolytic cleavage of PARP by caspase-3 (FIG. 8C).

[2] = Further antifolate agents as enhancers of temozolomide activity (FIGS. 9 and 10); format: cell-based; conditions: FIG. 9
Method: FIG. 9 is a further graph presenting the results of tests of several antifolate agents as enhancers of anti-neoplastic activity. In the figure, N1 is pterin-6-carboxylic acid, N2 is aminopterin, N3 is amiloride and N4 is N,N-hexamethylene amiloride.
FIG. 10 presents further data from the testing of additional agents for use in accordance with the invention. Thus, TMZ was administered in combination with compounds S1-S14. The compounds tested are as follows: S1-dipyridamole. S2-methotrexate, S3-minoxidil, S4-prazosin hydrochloride, S5-pyrimethamine, S6-triamterene, S7-trimethoprim, S8-aminopterin, S9-pipemidic acid, S10-piromidic acid, S11-famciclovir, S12-alfuzocin, S13-xanthopterin, and S14-leucopterin.
In FIGS. 9 and 10, additional antifolate agents were tested, and the results indicating their activity as enhancers of TMZ activity are set forth.

[3] = tested on: human melanoma cell line SK-MEL 19; experiment: Screening of Spectrum Collection library for enhancers of TMZ-induced growth inhibition (MTT assay); format: cell-based; conditions: SK-MEL19, 1 μM compound in presence of 50 μg/ml TMZ, 96-well plates, read-out: greater growth inhibition relative to TMZ alone
Method: FIGS. 1A and 1B. […] Screening was performed with SK-Mel-19 cells in 96-well plates following by MTT assay. Cells in one set of plate were treated with each library compound alone at 1 μM while cells in the parallel plate were treated with a combination of 1 μM library compound and 50 μg/ml TMZ. Positive candidates were later reconfirmed in triplicate.
A commercial library of 2000 drugs and natural products was screened to identify novel compounds that enhance TMZ-induced growth inhibition in the human melanoma cell line SK-MEL 19. Screening was performed in 96-well plates at final compound concentration of 1 μM, in the absence or presence of 50 μg/ml TMZ, followed by MTT assay (FIG. 1A).

[4] = cited from earlier work
SK-MEL 19 = experiment: Cell death by trypan blue dye exclusion; format: cell-based, human; conditions: clinically-relevant concentration of TMZ, PYR 0.5 μM, 72 hours
Method: Melanoma cells were exposed to the indicated concentration of TMZ, PYR or both for 72 hours. In FIG. 5A, cell death was evaluated by trypan blue dye exclusion. * P<0.05, compared to 2 or 3. In FIG. 5B, cleaved Caspase-3 was determined by Western blot analysis. 1. Control; 2. TMZ (25 μg/ml); 3. PYR (0.5 μM), and 4. TMZ and PYR combination.
as §2
To investigate whether PYR can enhance the induction of cell death by TMZ, Trypan blue staining was employed to determine the ratio of dead cells versus total cells in SK-MEL 19. […]

[5] = cited from earlier work; remark: listed apart in the source

CC1(C)N=C(N)N=C(N)N1c1ccc(Cl)cc1 [CYC, cycloguanil]
enhancement of TMZ efficacy (melanoma cells): enhance TMZ efficacy

CCc1nc(N)nc(N)c1-c1ccc(Cl)c(Cl)c1 [DDEP, etoprine]
sensitization to TMZ (effect on TMZ response curve) (SK-MEL 19 cells; 0.005 μM antifolate, MTT): significant sensitization to TMZ

Cc1nc(N)nc(N)c1-c1ccc(Cl)c(Cl)c1 [DDMP, metoprine]
sensitization to TMZ (effect on TMZ response curve) (SK-MEL 19 cells; 0.005 μM antifolate, MTT): significant sensitization to TMZ

Nc1nc2c(c(=O)[nH]1)N(C=O)C(CNc1ccc(C(=O)N[C@@H](CCC(=O)O)C(=O)O)cc1)CN2 (some centres unmarked) [LV, N-5-formyltetrahydrofolate]
rescue of inhibition of cell growth induced by TMZ/PYR (SK-MEL 19 cells; 10 μM LV added to cells treated with TMZ (25 μg/ml)/PYR (0.5 μM), MTT): rescued
rescue of increase in apoptotic death induced by TMZ/PYR (proteolytic cleavage of PARP) [1]: rescued

CN(Cc1cnc2nc(N)nc(N)c2n1)c1ccc(C(=O)N[C@@H](CCC(=O)O)C(=O)O)cc1 [MTX, methotrexate]
sensitization to TMZ (effect on TMZ response curve) (SK-MEL 19 cells; 0.001 μM antifolate, MTT): significant sensitization to TMZ
enhancement of TMZ efficacy (melanoma cells): enhance TMZ efficacy

Nc1nc2ncc(C(=O)O)nc2c(=O)[nH]1 [N1, pterin-6-carboxylic acid]
enhancement of the antineoplastic activity of temozolomide [2]: favorable enhancement

N=C(N)NC(=O)c1nc(Cl)c(N)nc1N [N3, amiloride]
enhancement of the antineoplastic activity of temozolomide [2]: favorable enhancement

NC(N)=NC(=O)c1nc(Cl)c(N2CCCCCC2)nc1N [N4, N,N-hexamethylene amiloride]
enhancement of the antineoplastic activity of temozolomide [2]: favorable enhancement

COc1ccc(OC)c(Cc2cnc3nc(N)nc(N)c3c2C)c1 [PTX, Piritrexim]
enhancement of TMZ efficacy (melanoma cells): enhance TMZ efficacy

CCc1nc(N)nc(N)c1-c1ccc(Cl)cc1 [PYR, pyrimethamine]
inhibition at 1 µM [3]: ≥ 50%
blood-brain barrier crossing ([4]; in vivo): easily crosses the blood-brain barrier
oral bioavailability ([4]; oral administration): bioavailable following oral administration

COc1cc(Cc2cnc(N)nc2N)cc(OC)c1OC [TMP, Trimethoprim]
enhancement of TMZ efficacy (melanoma cells): enhance TMZ efficacy

COc1cc(NCc2ccc3nc(N)nc(N)c3c2C)cc(OC)c1OC [TMTX, Trimetrexate]
enhancement of TMZ efficacy (melanoma cells): enhance TMZ efficacy

Cn1nnc2c(C(N)=O)ncn2c1=O [TMZ, temozolomide]
cell death (ratio of dead cells versus total cells) (SK-MEL 19): approximately 15%
IC50 (SK-MEL 19 cells; Homo sapiens, SK-MEL19, TMZ alone, SK-MEL-19 cells): ~60 µg/mL
clinically achievable serum levels during chemotherapy [5]: 100 µM

S=C=NCc1ccccc1 [benzyl isothiocyanate]
inhibition at 1 µM [3]: ≥ 50%

[H]/N=C(\N/C(=N/[H])NCCCCCCNC(=N)NC(=N)Nc1ccc(Cl)cc1)Nc1ccc(Cl)cc1 [chlorhexidine]
inhibition at 1 µM [3]: ≥ 50%

Oc1ccc(Cl)c2cccnc12 [cloxyquin]
inhibition at 1 µM [3]: ≥ 50%

Nc1nc(N)c2nc(-c3ccccc3)c(N)nc2n1 [triamterene]
inhibition at 1 µM [3]: ≥ 50%
